In test [1] the target is T1, rCTR1-K (Arabidopsis thaliana, UniProt Q05609).
T1 construct: gene CTR1; tag kept
As to the kind of experiment: microscale thermophoresis. Particulars: liposomes of the lipid, 10 nM RED-labelled protein, 50 mM Tris-HCl pH 7.4, 150 mM NaCl, 10 mM MgCl2, 0.05% Tween-20. Format: binding. From the text: microscale thermophoresis on rCTR1-K

Test [2] has as its target T2, rCTR1 (Arabidopsis thaliana, UniProt Q05609).
T2 construct: gene CTR1; full-length CTR1 coding region, N-terminal GST fusion (pGEX-6P-1), E. coli BL21 (DE3); tag kept (detected by anti-GST)
T2 sequence (Q05609 1-821): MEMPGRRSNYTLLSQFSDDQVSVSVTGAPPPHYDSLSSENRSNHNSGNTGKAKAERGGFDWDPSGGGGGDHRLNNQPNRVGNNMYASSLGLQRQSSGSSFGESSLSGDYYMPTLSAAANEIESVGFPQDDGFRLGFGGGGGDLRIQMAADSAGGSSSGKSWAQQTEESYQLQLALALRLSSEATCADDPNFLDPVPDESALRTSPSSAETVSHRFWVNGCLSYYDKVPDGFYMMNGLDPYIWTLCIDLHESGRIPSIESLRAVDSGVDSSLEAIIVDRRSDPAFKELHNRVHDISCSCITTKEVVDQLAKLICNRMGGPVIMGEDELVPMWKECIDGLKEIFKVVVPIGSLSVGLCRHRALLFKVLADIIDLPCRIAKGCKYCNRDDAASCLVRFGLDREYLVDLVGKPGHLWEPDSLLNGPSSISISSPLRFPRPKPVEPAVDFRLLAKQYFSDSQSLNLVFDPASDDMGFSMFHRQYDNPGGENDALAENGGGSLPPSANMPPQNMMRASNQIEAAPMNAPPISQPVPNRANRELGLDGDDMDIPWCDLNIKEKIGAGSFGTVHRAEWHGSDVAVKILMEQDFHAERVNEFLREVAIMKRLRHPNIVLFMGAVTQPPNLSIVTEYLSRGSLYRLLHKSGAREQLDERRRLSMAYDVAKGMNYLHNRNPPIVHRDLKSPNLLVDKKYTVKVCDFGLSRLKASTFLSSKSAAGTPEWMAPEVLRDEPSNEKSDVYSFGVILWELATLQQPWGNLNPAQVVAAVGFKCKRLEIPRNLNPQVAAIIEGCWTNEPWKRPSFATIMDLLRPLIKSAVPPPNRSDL
As to the kind of experiment: microscale thermophoresis. The test is classed as binding. From the text: microscale thermophoresis on rCTR1
Background: Microscale thermophoresis detects binding through changes in fluorescence in a small temperature gradient.

Test [3] has as its target T1, rCTR1-K. Briefly: TR-FRET kinase assay (HTRF KinEASE, STK Substrate 2-biotin). The following applies: liposomes pre-incubated 30 min at 4°C; 100 μM ATP, 1 μM STK Substrate 2-biotin; room temperature; inhibition. Format: biochemical. On the technique in general: In TR-FRET formats the signal depends on donor and acceptor labels being close together.
Test [4] addresses T2, rCTR1. Described as above. Format: biochemical. The following applies: liposomes pre-incubated 30 min at 4°C; 100 μM ATP, 1 μM STK Substrate 2-biotin; room temperature; inhibition.
The mark [5] stands for this setting: read-out: Dissociation Constants (K d) / 24:1-Cer.

The values that follow come from paper PMC4379176, “Unsaturation of Very-Long-Chain Ceramides Protects Plant from Hypoxia-Induced Damages by Modulating Ethylene Signaling in Arabidopsis” (PLoS Genetics, 2015).

Like-named read-outs stand apart in the source and are kept apart here.

With 18:0-Cer, the Kd on rCTR1-K [1] (read-out: Dissociation Constants (K d) / 18:0-Cer) turned out to be 49.3 ± 7 µM; on rCTR1 [2] (liposomes of the lipid, 10 nM RED-labelled protein, 50 mM Tris-HCl pH 7.4, 150 mM NaCl, 10 mM MgCl2, 0.05% Tween-20, highest liposome concentration 50 μM, no binding seen on filters, read-out: Dissociation Constants (K d) / 18:0-Cer) it was 50.6 ± 5.2 µM.

Regarding 24:0-Cer, the Kd on rCTR1-K [1] (read-out: Dissociation Constants (K d) / 24:0-Cer) came to 4.3 ± 1.3 µM; on rCTR1 [2] (liposomes of the lipid, 10 nM RED-labelled protein, 50 mM Tris-HCl pH 7.4, 150 mM NaCl, 10 mM MgCl2, 0.05% Tween-20, read-out: Dissociation Constants (K d) / 24:0-Cer) it was 10.8 ± 1.3 µM.

On to `CCCCCCCC/C=C\CCCCCCCCCCCCCC(=O)N[C@@H](CO)[C@H](O)/C=C/CCCCCCCCCCCCC` [24:1-Cer], for which the “relative CTR1 activity at 1 nM” value is “both rCTR1 and rCTR1-K proteins exhibited decreased kinase activities” at rCTR1-K [3]; “both rCTR1 and rCTR1-K proteins exhibited decreased kinase activities” at rCTR1 [4]. In addition, the results for the Kd on rCTR1-K [1] (setting [5]) and on rCTR1 [2] (setting [5]) were 1 ± 0.1 µM and 1.6 ± 0.1 µM, respectively.
